Test system: 4t1-luc cancer cells
Assay: syngeneic 4t1 mouse model of breast cancer, tumor volume growth
Assay type: in vivo
Details: Balb/c mice, tail vein injection 100 microliters, six administrations, twice a week starting day 1 after tumor challenge, caliper measurements, relative to PBS control
Protocol: In vivo testing was done with a syngeneic 4t1 model of breast cancer in immuno-competent Balb/c mice. […] Briefly, primary tumors were established in mammary tissue of 6 week old Balb/c mice by injection of 106 4t1-12B cells subcutaneously under the nipple. The mice were kept in standard housing and with a normal diet. Each group of mice (6-10 per group, 20 g±10% body weight) were injected (100 microliters) 2 times per week through the tail vein for a period of 3 weeks, starting either on day one or day six after the tumor challenge. Clodronate solution was dissolved in PBS and given intravenously starting on day one after tumor challenge. Control mice were injected intravenously through the tail vein with PBS. Tumor growth was measured in a blinded fashion with a caliper each week and tumor volumes were calculated using the measured dimensions. Body weights were recorded weekly, and mice were sacrificed on day 34.

O=P(O)(O)C(Cl)(Cl)P(=O)(O)O [Clodronate (5.6 mg/mL) in PBS, clodronate]
tumor volume growth of 4t1-luc cancer cells: did not inhibit the growth of 4 μl tumors relative to PBS control
tumor volume growth of 4t1-luc cancer cells (listed as clodronate solution): unable to inhibit growth of 4 μl tumors as effectively as clodronate-hydroxyapatite

From patent publication US20090215729A1, “MICROPARTICLE COMPOSITIONS TO MODIFY CANCER PROMOTING CELLS” (priority 2008, published 2009)
